Counter-ions that a name gives are not always drawn.
target: type IV phosphodiesterase; assay: Phosphodiesterase inhibition activity (in vitro), Type IV; assay type: biochemical, human (peripheral blood of a healthy person)
Protocol: (1) Method for measuring type IV phosphodiesterase inhibition activity
The following assay was used for the evaluation of the capability of the compounds of the present invention to inhibit type IV phosphodiesterase.
1) Physiological saline (200 ml) supplemented with dextran (3%) was added to 500 ml of heparinized peripheral blood of a healthy person and incubated at 37° C. for 40 minutes to effect precipitation of erythrocytes. The supernatant after precipitation of erythrocytes was recovered and centrifuged once, and the resulting precipitate was suspended in buffer A (140 mM NaCl, 5 mM KCl, 5 mM glucose and 10 mM HEPES, pH 7.4), overlaid on a solution for density gradient centrifugation use (Ficoll solution) and then centrifuged at room temperature for 40 minutes at 450×g, thereby separating monocyte fraction and granulocyte fraction. The granulocyte fraction was washed once with buffer B (140 mM NaCl, 5 mM KCl, 1 mM CaCl2, 1 mM MgCl2, 5 mM glucose and 10 mM HEPES, pH 7.4) and suspended in buffer C (20 mM Bis-Tris, 5 mM dithioerythritol, 2 mM EGTA and 50 mM sodium acetate, pH 6.5) containing a protease inhibitor (50 μM phenyl-methyl-sulfonyl-fluoride, 5 μM pepstatin A, 40 μM leupeptin, 20 μM aprotinin or 2 mM benzamidine) and then the cells were disrupted using polytron and sonicator and subjected to ultracentrifugation (4° C., 100,000×g, 60 minutes) to give a soluble fraction.
2) The thus obtained soluble fraction was applied to a column of 1.6×10 cm packed with Q Sepharose which had been equilibrated with buffer C. Next, the column was washed with 300 ml of buffer C to remove non-absorbed protein. Phosphodiesterase was eluted with 200 ml of buffer C having 0.05 to 1.25M linear gradient of sodium acetate to collect 40 fractions each containing 5.0 ml eluate. Each fraction was checked for cAMP- and cGMP-metabolizing phosphodiesterase activities. Fractions having no cGMP- but cAMP-metabolizing activity and showing disappearance of the metabolizing activity by 10 μM rolipram (a type IV phosphodiesterase selective inhibitor) were collected to be used as a stock solution for the examination of type IV phosphodiesterase inhibition activity.
3) A predetermined amount of each compound to be tested was subjected to 10 minutes of reaction at 30° C. in a reaction mixture containing 40 mM Tris-HCl (pH 8.0), 5 mM MgCl2, 4 mM 2-mercaptoethanol, 0.3 μM cilostamide (a type III phosphodiesterase selective inhibitor), 1 μM cAMP, 10 nM ^3 H-cAMP and the type IV phosphodiesterase stock solution. The reaction solution was boiled at 90° C. for 1 minute, ice-cooled, mixed with 1 unit of 5'-nucleotidase and then subjected to 10 minutes of reaction at 30° C., and the reaction was stopped by the addition of 1 ml of methanol. The reaction solution was passed through a Dowex 1×8 column to adsorb un-hydrolyzed material and then the radioactivity was measured.
4) Concentration of each compound to be tested which inhibits 50% of the metabolic activity of type IV phosphodiesterase was calculated and expressed as IC50. (2) Method for measuring the activity to inhibit various phosphodiesterase isozymes
Results: The inhibition activity (IC50) value for h type of phosphodiesterase (Type I, Type II, Type III, e IV, and Type V) is shown in the following table.

| Compound | IC50 [µM] |
| --- | --- |
| CCc1cc(C)c2c(-c3cccc(Br)c3)cc(=O)n(CC)c2n1 [Example 31, 4-(3-bromophenyl)-1,7-diethyl-5-methyl-1,8-naphthyridin-2(1H)-one] | > 30 |
| CCc1cc(C)c2c(C3CCCCC3)cc(=O)n(CC)c2n1 [Example 49, 4-cyclohexyl-1,7-diethyl-5-methyl-1,8-naphthyridin-2(1H)-one] | 30.2 |
| CCn1c(=O)cc(-c2cccc(Cl)c2)c2cccnc21 [Example 15, 4-(3-Chlorophenyl)-1-ethyl-1,8-naphthyridin-2(1H)-one] | 58.9 |
| CCc1cc(C)c2c(-c3cccc(Cl)c3)cc(=O)n(C)c2n1 [Example 27, 4-(3-Chlorophenyl)-7-ethyl-1,5-dimethyl-1,8-naphthyridin-2(1H)-one] | > 30 |
| CCCn1c(=O)cc(-c2cccc(Br)c2)c2c(C)cc(CC)nc21 [Example 33, 4-(3-Bromophenyl)-7-ethyl-5-methyl-1-propyl-1,8-naphthyridin-2(1H)-one] | > 30 |
| CCn1c(=O)cc(-c2cccc(Cl)c2)c2c(C)cc(C)nc21 [Example 29, 4-(3-Chlorophenyl)-1-ethyl-5,7-dimethyl-1,8-naphthyridin-2(1H)-one] | > 30 |
| CCn1c(=O)cc(-c2ccccc2)c2c(C)cc(C)nc21 [Example 38, 1-Ethyl-5,7-dimethyl-4-phenyl-1,8-naphthyridin-2(1H)-one] | > 30 |
| CCn1c(=O)cc(-c2cccc(Br)c2)c2c(C)cc(C)nc21 [Example 30, 4-(3-Bromophenyl)-1-ethyl-5,7-dimethyl-1,8-naphthyridin-2(1H)-one] | 31.2 |
| CCc1cc(C)c2c(-c3cccc(Cl)c3)cc(=S)n(C)c2n1 [Example 43, 4-(3-chlorophenyl)-7-ethyl-1,5-dimethyl-1,8-naphthyridine-2(1H)-thione] | > 30 |
| CCc1cc(C)c2c(-c3cccc(Cl)c3)cc(=O)n(C3CC3)c2n1 [Example 35, 4-(3-Chlorophenyl)-1-cyclopropyl-7-ethyl-5-methyl-1,8-naphthyridin-2(1H)-on] | 21.9 |
| Cc1cc(C)c2c(-c3cccc(Cl)c3)cc(=O)n(C)c2n1 [Example 24, 4-(3-chlorophenyl)-1,5,7-trimethyl-1,8-naphthyridin-2(1H)-one] | 98.3 |
| CCc1cc(C)c2c(-c3ccccc3)cc(=O)n(CC)c2n1 [Example 40, 1,7-Diethyl-5-methyl-4-phenyl-1,8-naphthyridin-2(1H)-one] | 31.9 |
| CCn1c(=O)cc(C2CCCCC2)c2cccnc21 [Example 46, 4-cyclohexyl-1-ethyl-1,8-naphthyridin-2(1H)-one 0.45 hydrochloride 0.25 hydrate] | > 30 |
| CCc1cc(C)c2c(-c3ccccc3)cc(=O)n(C)c2n1 [Example 26, 7-Ethyl-1,5-dimethyl-4-phenyl-1,8-naphthyridin-2(1H)-one] | 84.9 |
